Laboratory results taken from patent publication US20230404958A1, “AGENT FOR […] DAMAGE INDUCED BY RHABDOMYOLYSIS” (Niigata University, priority 2021, published 2023).

What was measured:
megalin (binding to Hx) = megalin (binding to Hx) (Rattus norvegicus, UniProt P98158); details: 1 mg of cilastatin injected into buffer (200 μL) in advance; FIG. 2-1
Description: (§1) Binding specificity between megalin and each ligand (myoglobin, α1M, and Hx) and the possible binding inhibition by cilastatin were verified using the quartz crystal microbalance (QCM) method by reference to the method described in PTL 2.
(§2) For the ligands to be verified, myoglobin (LifeSpan Biosciences Inc., Rat […] Native Protein, LS-G11201) and Hx (Sino Biological Inc., Rat Hemopexin/HPX protein (His Tag 81025-R08H)) were used. […]
(§3) After each of the ligand- or BSA-immobilized quartz crystal sensor was mounted in the measurement instrument AFFINIX® Q8 (Initium Inc.) and the frequency was confirmed to be stable, 8 μL of a 0.1 mg/mL solution of megalin purified from Sprague-Dawley (SD) rat kidneys according to the method of Orlando et al. was injected and frequency was measured with time.
(§4) More specifically, the megalin solution was reacted with each of the ligand-immobilized quartz crystal sensors placed under the water surface with 200 μL of buffer, and the frequency was measured.
(§5) Additionally, 1 mg of cilastatin was injected into buffer in advance, each of the ligand-immobilized quartz crystal sensors was mounted in the measurement instrument, and after the frequency was confirmed to be stable, the megalin solution was injected and frequency was measured with time, whereby the antagonistic activity of cilastatin against the binding of each ligand to megalin was analyzed. […]

[1] = target: megalin (binding to myoglobin) (Rattus norvegicus, UniProt P98158); details: 1 mg of cilastatin injected into buffer (200 μL) in advance; FIG. 2-1
Description: as §1, §2, §3, §4, §5

megalin (binding to α1M) = megalin (binding to α1M) (Rattus norvegicus, UniProt P98158); details: 1 mg/200 μL of cilastatin injected into buffer in advance; FIG. 2-2
Description: as §1

[2] = test system: uptake of each ligand into kidney tissues through megalin; details: cilastatin sodium 400 mg/kg intraperitoneally, urine collected 3 hours
Experimental: Cilastatin was administered to mice and changes in concentrations of each ligand in urine were observed.
Five mice (male, aged 12 weeks C57BL/6) were intraperitoneally administered with 400 mg/kg (diluted in 100 μL of normal saline, cilastatin-treated group) of cilastatin sodium (Sigma-Aldrich Japan K.K., C5743), and then put in a metabolic cage for 3 hours to collect urine, and the urines of 5 mice were combined. Additionally, 100 μL of normal saline was administered to another group of 5 mice (control group), and the same experiment as above was conducted.
Proteins were isolated from the obtained urine samples by electrophoresis (SDS-polyacrylamide gel), reductively alkylated (using dithiothreitol and iodoacetamide), digested with trypsin, and the obtained peptides were extracted to obtain a solid.
To the obtained solid, 15 μL of 0.3% formic acid (FA) was added, shaken for 5 minutes, sonicated for 1 minute, and shaken again for 5 minutes. The resultant mixture was spun down, applied to a membrane filter having a pore diameter of 0.45 μm (ULtra free-MC, HV, 0.45 μm, Millipore), centrifuged at 10,000 rpm for 5 minutes, and the sample passed through the filter was subjected to LCMS analysis.
AnaLyst® TF1.6 (AB SCIEX) was used as an LCMS/MS data acquisition and analysis software, and the obtained raw data were converted to a peak list file (mgf file format), whereby MS/MS Ion Search (MIS search) was conducted using Matrix Science Mascot daemon, Mascot server 2.2.1. The sequence data base used was Uniprot, Swiss-Prot. Significance threshold was set to 0.05 (false discovery rate of less than 5%), and the proteins having 2 or more peptides exceeding the identification standard were listed as identified proteins.
Raw data were acquired 2 times per sample at LCMS to cover the issue of analysis reproducibility at LCMS, and the peak list files obtained from the 2 runs were combined and analyzed using Mascot (Ohara et al., 2018, PLoS One, vol. 13, 1, e0204160).
To the proteins identified in common in 2 groups when compared, the spectral count method was used, which is a label-free comparative, semiquantitative analysis method utilizing a principle that a large number of peptide fragments will be identified in those expressed at high levels, resulting in the increase in the number of MS/MS. In other words, the proteins identified in both of the cilastatin-treated group and control group were calculated for an SpC/L ratio (spectral abundance factor: SAF) of the cilastatin-treated group/control group, and the proteins having an SpC/L ratio of 2.0 or more were listed as the proteins abundant in urine of the cilastatin-treated group.

[3] = test system: myoglobin uptake into kidney tissues; details: rhabdomyolysis model mice; 24 hours after glycerol dosing; anti-myoglobin immunostaining; FIG. 5
Experimental: In line with Test Example 1, 50% glycerol was administered to C57BL/6 (male, aged 10-12 weeks), thereby constructing rhabdomyolysis model mice.
Twenty-four hours after glycerol dosing, a portion containing a kidney pedicle was sliced to 3 mm thickness from the right kidney and fixed with 4% paraformaldehyde phosphate buffer.

[4] = test system: rhabdomyolysis model mice; details: 400 mg/kg intraperitoneally; 24 hours after glycerol administration; vs normal saline control group; FIG. 1
Experimental: Serum potassium, which elevates when a renal function is reduced, was measured to verify whether the onset of renal injuries in rhabdomyolysis model mice is inhibited by cilastatin administration.
To C57BL/6 (male, aged 10-12 weeks), 5 mL/kg of a solution of 50% volume/volume glycerol (FUJIFILM Wako Pure Chemical Corporation)/PBS was prepared, and the solution was intramuscularly injected to the right hind limb, thereby constructing rhabdomyolysis nephropathy models. The administered animals were divided into 2 groups (6 mice per group), and intraperitoneally administered with a) 400 mg/kg (diluted in 100 μL of normal saline) of cilastatin (Sigma-Aldrich Inc.) or b) 100 μL of normal saline as a control.
The serum was stored at −80° C. until analysis and the measurement of serum potassium was conducted by Oriental Yeast Co., Ltd.

[5] = cilastatin-treated group/control group, pooled from 5 mice

megalin (binding to myoglobin), sequence (P98158 26-4660): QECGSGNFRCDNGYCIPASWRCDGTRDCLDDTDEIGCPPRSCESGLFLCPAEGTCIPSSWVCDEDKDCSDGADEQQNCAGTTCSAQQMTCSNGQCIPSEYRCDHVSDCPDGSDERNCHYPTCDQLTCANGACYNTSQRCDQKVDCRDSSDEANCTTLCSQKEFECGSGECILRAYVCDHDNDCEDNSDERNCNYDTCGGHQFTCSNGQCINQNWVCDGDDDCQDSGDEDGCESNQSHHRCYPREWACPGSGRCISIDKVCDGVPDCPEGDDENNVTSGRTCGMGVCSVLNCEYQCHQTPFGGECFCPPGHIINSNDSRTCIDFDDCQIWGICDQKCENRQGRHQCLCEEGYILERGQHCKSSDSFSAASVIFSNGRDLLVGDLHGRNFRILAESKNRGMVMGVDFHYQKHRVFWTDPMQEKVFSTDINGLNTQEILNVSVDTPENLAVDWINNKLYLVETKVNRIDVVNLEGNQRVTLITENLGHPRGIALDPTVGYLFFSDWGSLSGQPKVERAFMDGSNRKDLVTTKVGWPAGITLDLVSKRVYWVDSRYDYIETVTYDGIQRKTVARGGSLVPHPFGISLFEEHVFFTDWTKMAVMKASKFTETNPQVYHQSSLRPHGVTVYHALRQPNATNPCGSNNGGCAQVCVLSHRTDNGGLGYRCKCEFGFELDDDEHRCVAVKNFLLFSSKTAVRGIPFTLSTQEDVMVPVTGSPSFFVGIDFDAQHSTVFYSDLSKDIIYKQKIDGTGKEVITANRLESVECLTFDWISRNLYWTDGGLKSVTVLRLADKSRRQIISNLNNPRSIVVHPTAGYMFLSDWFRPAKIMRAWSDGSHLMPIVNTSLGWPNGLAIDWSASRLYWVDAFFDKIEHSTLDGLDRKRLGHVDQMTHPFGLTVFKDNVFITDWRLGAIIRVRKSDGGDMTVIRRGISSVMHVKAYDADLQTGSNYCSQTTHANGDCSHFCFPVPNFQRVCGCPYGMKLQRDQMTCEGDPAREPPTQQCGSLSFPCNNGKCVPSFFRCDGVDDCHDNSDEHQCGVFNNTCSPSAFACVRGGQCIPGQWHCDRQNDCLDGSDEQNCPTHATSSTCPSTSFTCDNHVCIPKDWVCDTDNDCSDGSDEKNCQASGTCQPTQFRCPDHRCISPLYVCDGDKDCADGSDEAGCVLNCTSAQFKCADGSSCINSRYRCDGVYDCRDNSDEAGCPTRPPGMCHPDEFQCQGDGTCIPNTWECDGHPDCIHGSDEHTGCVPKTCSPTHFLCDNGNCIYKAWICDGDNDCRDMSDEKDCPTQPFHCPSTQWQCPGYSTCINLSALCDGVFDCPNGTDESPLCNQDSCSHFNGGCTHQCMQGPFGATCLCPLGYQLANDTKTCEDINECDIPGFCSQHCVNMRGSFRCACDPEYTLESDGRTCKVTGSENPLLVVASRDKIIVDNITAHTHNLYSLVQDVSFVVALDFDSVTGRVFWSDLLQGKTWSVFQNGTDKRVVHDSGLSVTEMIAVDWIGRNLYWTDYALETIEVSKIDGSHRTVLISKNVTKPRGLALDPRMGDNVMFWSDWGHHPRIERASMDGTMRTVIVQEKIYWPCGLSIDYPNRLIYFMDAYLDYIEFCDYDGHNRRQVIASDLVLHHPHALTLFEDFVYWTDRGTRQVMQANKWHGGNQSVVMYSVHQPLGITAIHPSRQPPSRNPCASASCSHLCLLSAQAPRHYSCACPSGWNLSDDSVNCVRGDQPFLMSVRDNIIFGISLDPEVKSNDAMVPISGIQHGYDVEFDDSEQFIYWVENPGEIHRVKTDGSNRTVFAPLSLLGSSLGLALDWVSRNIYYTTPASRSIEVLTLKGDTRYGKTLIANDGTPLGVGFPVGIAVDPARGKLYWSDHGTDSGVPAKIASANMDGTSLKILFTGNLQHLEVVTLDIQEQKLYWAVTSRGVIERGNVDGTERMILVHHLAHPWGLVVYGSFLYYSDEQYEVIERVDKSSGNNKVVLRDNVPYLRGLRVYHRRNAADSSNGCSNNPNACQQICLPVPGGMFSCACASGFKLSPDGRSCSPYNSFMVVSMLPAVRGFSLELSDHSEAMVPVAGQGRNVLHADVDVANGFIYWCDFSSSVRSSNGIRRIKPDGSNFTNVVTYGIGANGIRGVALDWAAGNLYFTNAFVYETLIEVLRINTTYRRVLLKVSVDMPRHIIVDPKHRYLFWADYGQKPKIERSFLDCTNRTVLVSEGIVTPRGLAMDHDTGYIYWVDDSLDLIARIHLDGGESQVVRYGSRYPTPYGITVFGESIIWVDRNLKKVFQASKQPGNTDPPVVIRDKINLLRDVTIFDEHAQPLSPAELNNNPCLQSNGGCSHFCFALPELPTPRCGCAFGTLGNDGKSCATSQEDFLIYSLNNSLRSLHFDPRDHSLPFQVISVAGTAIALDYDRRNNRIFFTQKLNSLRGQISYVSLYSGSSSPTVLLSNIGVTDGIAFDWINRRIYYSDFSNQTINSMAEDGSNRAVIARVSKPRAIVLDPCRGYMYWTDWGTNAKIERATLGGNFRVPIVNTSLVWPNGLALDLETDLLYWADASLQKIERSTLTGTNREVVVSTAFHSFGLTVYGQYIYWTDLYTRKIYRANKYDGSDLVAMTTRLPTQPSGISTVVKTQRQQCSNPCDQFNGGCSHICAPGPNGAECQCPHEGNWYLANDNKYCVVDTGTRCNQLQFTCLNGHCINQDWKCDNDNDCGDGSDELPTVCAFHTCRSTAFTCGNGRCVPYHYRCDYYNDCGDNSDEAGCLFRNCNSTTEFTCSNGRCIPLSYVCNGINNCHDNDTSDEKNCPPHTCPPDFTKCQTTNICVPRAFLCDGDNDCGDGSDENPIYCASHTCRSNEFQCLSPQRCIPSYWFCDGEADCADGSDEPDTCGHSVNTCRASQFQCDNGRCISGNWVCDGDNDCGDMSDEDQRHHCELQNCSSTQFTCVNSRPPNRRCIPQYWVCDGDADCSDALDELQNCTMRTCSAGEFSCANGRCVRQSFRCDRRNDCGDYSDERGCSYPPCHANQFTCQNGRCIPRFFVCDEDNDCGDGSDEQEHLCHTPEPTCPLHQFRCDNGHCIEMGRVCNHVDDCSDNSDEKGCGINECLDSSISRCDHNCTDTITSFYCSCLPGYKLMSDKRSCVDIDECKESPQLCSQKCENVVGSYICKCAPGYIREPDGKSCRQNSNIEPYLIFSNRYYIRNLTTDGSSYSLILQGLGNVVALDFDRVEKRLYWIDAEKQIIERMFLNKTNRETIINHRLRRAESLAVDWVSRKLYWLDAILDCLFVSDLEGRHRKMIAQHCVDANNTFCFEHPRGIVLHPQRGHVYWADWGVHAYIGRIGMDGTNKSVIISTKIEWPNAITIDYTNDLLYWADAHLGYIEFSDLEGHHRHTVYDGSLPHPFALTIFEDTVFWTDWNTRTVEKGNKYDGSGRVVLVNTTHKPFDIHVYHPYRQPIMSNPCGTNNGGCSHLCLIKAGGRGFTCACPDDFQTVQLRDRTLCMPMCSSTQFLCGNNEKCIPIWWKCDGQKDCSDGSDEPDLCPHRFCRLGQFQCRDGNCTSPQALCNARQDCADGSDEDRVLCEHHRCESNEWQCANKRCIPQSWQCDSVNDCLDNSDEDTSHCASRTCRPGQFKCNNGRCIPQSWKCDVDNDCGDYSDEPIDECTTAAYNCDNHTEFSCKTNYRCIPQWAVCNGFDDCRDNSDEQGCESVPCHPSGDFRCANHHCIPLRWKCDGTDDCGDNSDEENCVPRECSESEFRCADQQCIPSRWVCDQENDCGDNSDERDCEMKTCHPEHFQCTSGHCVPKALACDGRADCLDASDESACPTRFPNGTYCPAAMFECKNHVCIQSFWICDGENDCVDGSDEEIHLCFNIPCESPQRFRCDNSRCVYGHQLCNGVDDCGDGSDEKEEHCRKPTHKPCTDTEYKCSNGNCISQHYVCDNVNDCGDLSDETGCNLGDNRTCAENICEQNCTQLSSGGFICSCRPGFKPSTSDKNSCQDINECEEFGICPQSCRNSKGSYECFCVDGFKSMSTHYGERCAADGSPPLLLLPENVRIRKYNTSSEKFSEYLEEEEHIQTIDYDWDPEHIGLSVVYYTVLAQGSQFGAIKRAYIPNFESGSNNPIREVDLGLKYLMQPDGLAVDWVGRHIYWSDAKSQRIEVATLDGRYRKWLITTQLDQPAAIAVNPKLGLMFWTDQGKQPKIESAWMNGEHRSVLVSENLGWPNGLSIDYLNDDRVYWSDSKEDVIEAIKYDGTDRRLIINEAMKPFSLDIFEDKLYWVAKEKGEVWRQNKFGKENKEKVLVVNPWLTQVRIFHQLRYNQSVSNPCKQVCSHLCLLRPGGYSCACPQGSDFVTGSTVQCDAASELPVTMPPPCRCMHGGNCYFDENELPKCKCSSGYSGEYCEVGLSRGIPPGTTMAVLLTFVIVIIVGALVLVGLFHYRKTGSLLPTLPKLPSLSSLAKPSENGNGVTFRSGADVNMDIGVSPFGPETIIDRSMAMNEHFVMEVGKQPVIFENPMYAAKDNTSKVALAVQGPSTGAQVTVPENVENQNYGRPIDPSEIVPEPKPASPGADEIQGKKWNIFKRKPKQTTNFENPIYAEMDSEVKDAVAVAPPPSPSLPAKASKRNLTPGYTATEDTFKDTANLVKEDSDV
megalin (binding to Hx), sequence (P98158 26-4660): as above
megalin (binding to α1M), sequence (P98158 26-4660): as above

## CC1(C)C[C@@H]1C(=O)N/C(=C\CCCCSC[C@H](N)C(=O)O)C(=O)O [cilastatin, (Z)-7-[[(R)-2-Amino-2-carboxyethyl]thio]-2-[[[(S)-2,2-dimethylcyclopropyl]carbonyl]amino]-2-heptenoic acid]
Megalin (binding to Hx)
  drop of quartz crystal signals on adding megalin to Hx-immobilized sensor (megalin-Hx binding): inhibited
[1]
  drop of quartz crystal signals on adding megalin to myoglobin-immobilized sensor (megalin-myoglobin binding): inhibited
Megalin (binding to α1M)
  drop of quartz crystal signals on adding α1M to megalin-immobilized sensor (megalin-α1M binding): inhibited
[2]
  number of urinary proteins having an SpC/L ratio of the cilastatin-treated group/control group of 2.0 or more: 63 kinds
[2]; [5]
  SpC/L ratio, urinary Albumin: 1.10
  SpC/L ratio, urinary Clusterin: 0.73
  SpC/L ratio, urinary Transthyretin: 1.00
  SpC/L ratio, urinary Vitamin D-binding protein: 0.80
[3]
  amounts of myoglobin taken up into kidney tissues: reduced
[4]
  serum potassium: lower values than the control group
